Measurements published in patent US6649647B1, “Trioxane derivatives” (priority 1998, dated 2003).

What was measured:
Type in all cases: cell-based
[1] = system: human colon cancer cell line HT 29; assay: Growth inhibition assay (MTT), HT 29; details: Table VI, 6 days incubation
Protocol: (§1) As another example of evaluation of cytotoxicity, cancer cell lines were also used for a growth inhibition assay. The human colon cancer cell lines SW 480 and HT 29 and the murine melanoma cell line B16F10 were used. […] After confluent growth, the cells were trypsinated and resuspended in RPMI plus 10% FCS to a cell concentration of 50000 cells per ml in case of colon cancer cell lines and 20000 in case of B16F10. 100 μl of this cell suspension were transferred in each well of a 96 well microtiter plate and incubated for 1 day at 37° C. in a CO2-incubator. Subsequently, further 100 μl RPMI medium and 1 μl of a DMSO solution, containing the artemisinin derivatives were added. The growth inhibition was estimated after 6 days incubation at 36° C. using the MTT assay.
(§2) 25 μl MTT solution (3-(4,5-dimethylthiazol-2-yl)-2,5-diphenyltetrazolium-bromid) of a starting concentration of 5 mg/ml H2O were added and incubated at 37° C. for 5 h. Subsequently, 100 μl iso-propanol per well were added. After 15 min incubation 100 μl H2O were added. After 30 min shaking, the extinction was measured at 595 nm using a ELISA-Multiplate Reader.

[2] = system: murine melanoma cell line B16F10; assay: Growth inhibition assay (MTT), B16F10; details: Table VI, 6 days incubation
Protocol: as §1, §2

[3] = system: human colon cancer cell line SW 480; assay: Growth inhibition assay (MTT), SW 480; details: Table VI, 6 days incubation
Protocol: as §1, §2

[4] = system: Rat 6 subclone of the immortalized F2408 embryo cell line (R6); assay: Screening for cytotoxicity, cell count by Coulter Counter, R6 cells; details: for LD50 (Day 3) R6: day 3 after addition; for LD50 (Day 6) R6: day 6 after addition
Protocol: (§3) Compounds of the invention were screened against Rat 6 subclone of the immortalized F2408 embryo cell line, and Rat 6 (R6T24) cells transfected and transformed by a c-H-ras oncogene. The screening involved placing the R6 and R6T24 cell lines plated at 10^3 cells per well into a 12-well microtiter culture plate for 24 hours. The compounds were added at final concentrations from 0.1-100 μM, and cells were trypsized and counted by Coulter Counter at day 3 and day 6 after the addition. Untreated cells were assigned a survival value of 100%.

[5] = system: Rat 6 (R6T24) cells transfected and transformed by a c-H-ras oncogene; assay: Screening for cytotoxicity, cell count by Coulter Counter, R6T24 cells; details: R6T24 cell line; for LD50 (Day 3) R6T24: day 3 after addition; for LD50 (Day 6) R6T24: day 6 after addition
Protocol: as §3

| Structure (SMILES) | LD50 HT 29 [1] [nM] | LD50 B16F18 [2] [nM] | LD50 SW 480 [3] [nM] | LD50 (Day 3) R6 ([4]; Table V) [µM] | LD50 (Day 6) R6 ([4]; Table V) [µM] | LD50 (Day 3) R6 ([4]; Table VA) [µM] | LD50 (Day 6) R6 ([4]; Table VA) [µM] | LD50 (Day 3) R6T24 ([5]; Table V) [µM] | LD50 (Day 6) R6T24 ([5]; Table V) [µM] | LD50 (Day 3) R6T24 ([5]; Table VA) [µM] | LD50 (Day 6) R6T24 ([5]; Table VA) [µM] |
| --- | --- | --- | --- | --- | --- | --- | --- | --- | --- | --- | --- |
| Cc1cc(C)c(C2O[C@@H]3O[C@@]4(C)CC[C@H]5[C@H](C)CC[C@@H]([C@H]2C)[C@@]35OO4)cc1C (stereo partly shown) [Example 61] | 300 | 250 | 150 | – | – | – | – | – | – | – | – |
| C[C@@H]1CC[C@H]2[C@@H](C)C(c3ccc4ccccc4c3)O[C@@H]3O[C@@]4(C)CC[C@@H]1[C@]32OO4 (stereo partly shown) [Example 28] | 300 | 300 | 150 | – | – | – | – | – | – | – | – |
| C[C@@H]1CC[C@H]2[C@@H](C)C(=O)N(Cc3ccccc3)[C@@H]3O[C@@]4(C)CC[C@@H]1[C@@]23OO4 [Example 88] | – | – | – | 46.67 | 18.49 | 47.0 | 18.49 | 10.45 | 5.24 | 10.45 | 5.24 |
| COc1cc(OC)c(C2O[C@@H]3O[C@@]4(C)CC[C@H]5[C@H](C)CC[C@@H]([C@H]2C)[C@@]35OO4)c(OC)c1 (stereo partly shown) [Example 59] | 1500 | 1500 | 1500 | – | – | – | – | – | – | – | – |
| CC1CCC2C(C)C(OCc3ccc(F)cc3)OC3OC4(C)CCC1C32OO4 (stereo not shown) [Example 79] | 1500 | 200 | 200 | – | – | – | – | – | – | – | – |
| C[C@@H]1CC[C@H]2[C@@H](C)C(Nc3ccc(F)cc3)O[C@@H]3O[C@@]4(C)CC[C@@H]1[C@]32OO4 (stereo partly shown) [Example 31] | – | – | – | 0.34 | 0.27 | 0.34 | 0.27 | 0.23 | 0.14 | 0.23 | 0.14 |
| C[C@@H]1CC[C@H]2[C@@H](C)C(=O)N(Cc3cccc(F)c3)[C@@H]3O[C@@]4(C)CC[C@@H]1[C@@]23OO4 [Example 87] | – | – | – | >50.00 | 17.5 | – | – | 6.14 | 1.07 | – | – |
| C[C@@H]1CC[C@H]2[C@@H](C)C(Nc3ccc(I)cc3)O[C@@H]3O[C@@]4(C)CC[C@@H]1[C@]32OO4 (stereo partly shown) [Example 34] | 500 | 150 | 100 | – | – | – | – | – | – | – | – |
| COc1ccccc1C1O[C@@H]2O[C@@]3(C)CC[C@H]4[C@H](C)CC[C@@H]([C@H]1C)[C@@]24OO3 (stereo partly shown) [Example 29] | >10000 | >10000 | >10000 | – | – | – | – | – | – | – | – |
| CC1CCC2[C@@H](C)C(=O)N(Cc3ccccc3)C3O[C@]4(C)CCC1C23O4 (stereo partly shown) [D, reference compound] | – | – | – | >50.00 | >50.00 | >50 | >50 | >50.00 | >50.00 | >50 | >50 |
| CC1CCC2C(C)C(F)OC3OC4(C)CCC1C32OO4 (stereo not drawn) [Example 1, 10β-fluoro-10-deoxodihydroartemisinin] | – | – | – | 1.18 | 1.63 | 1.28 | 1.62 | 1.93 | 0.61 | 1.93 | 0.61 |
| C[C@@H]1CC[C@H]2[C@@H](C)C(N3CCN(C)CC3)O[C@@H]3O[C@@]4(C)CC[C@@H]1[C@]32OO4 (stereo partly shown) [Example 51] | – | – | – | – | – | 0.33 | 0.12 | – | – | 0.33 | 0.11 |
| CC1CCC2C(C)C(OC(=O)c3ccc4c(c3)C(=O)c3ccccc3C4=O)OC3OC4(C)CCC1C32OO4 (stereo not shown) [Example 66] | – | – | – | 0.34 | 3.60 | 0.34 | 3.6 | 0.32 | 0.32 | 0.32 | 0.32 |
| CC1CCC2C(C)C(OCc3cccc4c3ccc3ccccc34)OC3OC4(C)CCC1C32OO4 (stereo not shown) [Example 82] | – | – | – | – | – | 0.12 | 0.12 | – | – | 0.05 | 0.06 |
